Assay results published in patent US20140234868A1, “USE FOR GLYCOLIPOPROTEIN GINTONIN, ISOLATED AND IDENTIFIED FROM GINSENG, AS A NATURAL MEDICAL-PLANT DERIVED LIGAND” (KONKUK UNIVERSITY INDUSTRIAL COOPERATION CORP., priority 2011, published 2014).

B1: gintonin: ginseng-derived glycolipoprotein; structural protein of ginseng major latex-like protein (MLP151) and ribonuclease-like storage proteins; crude gintonin used in tests (protein)
chain 1: MGLTGKLICQTGIKSDGDVFHELFGTRPHHVPNITPANIQGCDLHEGEFGKVGSVVIWNYSIDGNAMIAKEEIVAIDEEDKSVTFKVVEGHLFEEFKSIVFSVHVDTKGEDNLVTWSIDYEKLNESVKDPTSYLDFLLSVTRDIEAHHLPK
chain 2: RSDYPWAMFALRLQWPAGFCEVNNACDTKSLLNTFTIHGLYPYNAKGTPALYCDGTAFDVNSVSDFLAEMHLAWPSHETNTEDIQFWEHEWKKHGRCSEALLKQTDYFRTALAFRKAFDIVGLLNQEGIYPNNDLYRPKMIKEAIKKHLNAVPEIDFTKNENSEYVLTDINVCVNQQATRFVDCPTDDATDDYRLKFVRLPSKMKFADPRTNSII

How the values were obtained:
[1] = tested on: NMDA receptors (NR1 and NR2); assay: NMDA receptor activity in Xenopus oocytes, two-electrode voltage clamp; assay type: cell-based
How it was run: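 Xenopus oocytes injected with NR1 and NR2 cDNA (100 ng/40 nl) and kept 4-5 days at 18 °C in ND96. Two-electrode voltage clamp at −60 mV in Mg2+-free ND96, pH 7.6. Currents evoked by […].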

BKCaK+ channels = assay: BKCa K+ channel activity in Xenopus oocytes, two-electrode voltage clamp; assay type: cell-based
How it was run: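 Two-electrode voltage clamp was performed at room temperature on stage V-VI Xenopus oocytes. Oocytes were perfused with Cl−/Ca2+-free solution, pH 7.4, containing 500 μM anthracene-9-carboxylic acid. Outward currents were recorded on 400 ms steps from −80 mV holding to +40 mV.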

Row | Molecule | effect on NMDA-induced inward current ([1]; Kil6425 10 μM, U73122 1 μM, 2-APB 100 μM, BAPTA 100 μM 3 h) | effect on gintonin-induced NMDA receptor activation ([1]; gintonin 1 μg/ml, Kil6425 10 μM, U73122, U73343 1 μM, 2-APB 100 μM, BAPTA 100 μM 3 h, genistein 10 μM, PP2, PP3 30 μM) | effect on gintonin-induced BKCaK+ channel activation (BKCaK+ channels; Kil6425 10 μM, U73122, U73343 1 μM, 2-APB 100 μM, BAPTA-AM, PMA 1 μM) | ED50, NMDA receptor-mediated inward currents ([1]; NMDA receptor-expressing Xenopus oocytes) [µg/mL] | ED50, BKCaK+ channel activation (BKCaK+ channels; BKCaK+ channels expressed in Xenopus oocytes) [µg/mL] | BKCa channel activity on repetitive treatment (desensitization) (BKCaK+ channels; repetitive treatments, data not shown)
1 | Cc1noc(-c2ccc(CSCCC(=O)O)cc2)c1NC(=O)OC(C)c1ccccc1Cl (stereo not drawn) [Kil6425] | had no influences on NMDA-NMDA receptor activation | blocked gintonin-induced NMDA receptor activation | reduced the gintonin-induced activation of BKCaK^+ channels | – | – | –
2 | B1 | – | – | – | 0.49 ± 0.10 | 0.71 ± 0.08 | Repetitive treatments of gintonin reduced BKa channel activity
